Data taken from patent US20100216795A1, “TNIK INHIBITOR AND THE USE” (priority 2008, published 2010).

Tests used:
Assay in all cases: Selectivity profiling, QuickScout STK Screening Panel
Format in all cases: biochemical
PIM1 = biological target: T1, PIM1 (Homo sapiens, UniProt P11309)
T1 construct: purchased Carna Biosciences
Method: (§1) The inhibitory effects of Compound 1 against 20 tyrosine kinases and 30 serine/threonine kinases were investigated using QuickScout™ TK and STK Screening Panel (Carna Biosciences, Kobe Japan). […] The results reveal that Compound 1 inhibits TNIK_N more potently (IC50; 9 nM) than the other 50 kinases.

IRAK4 = biological target: T2, IRAK4 (Homo sapiens, UniProt Q9NWZ3)
T2 construct: purchased Carna Biosciences
Method: as §1

RAF1 = RAF1 (Homo sapiens, UniProt P04049)
Method: as §1

DAPK1 = biological target: T3, DAPK1 (Homo sapiens, UniProt P53355)
T3 construct: purchased Carna Biosciences
Method: as §1

p70S6K = biological target: T4, p70S6K (Homo sapiens, UniProt P23443)
T4 construct: purchased Carna Biosciences
Method: as §1

AMPKa1/b1/g1 = biological target: T5, AMPKa1/b1/g1 (Homo sapiens, UniProt P54619+Q13131+Q9Y478)
T5 construct: purchased Carna Biosciences
Method: as §1

CaMK4 = biological target: T6, CaMK4 (Homo sapiens, UniProt Q16566)
T6 construct: purchased Carna Biosciences
Method: as §1

MAP2K1 = biological target: T7, MAP2K1 (Homo sapiens, UniProt Q02750)
T7 construct: purchased Carna Biosciences
Method: as §1

JNK2 = biological target: T8, JNK2 (Homo sapiens, UniProt P45984)
T8 construct: purchased Carna Biosciences
Method: as §1

CDK2 = biological target: T9, CDK2 (Homo sapiens, UniProt P24941)
T9 construct: purchased Carna Biosciences
Method: as §1

GSK3b = biological target: T10, GSK3b (Homo sapiens, UniProt P49841)
T10 construct: purchased Carna Biosciences
Method: as §1

AurA = biological target: T11, AurA (Homo sapiens, UniProt O14965)
T11 construct: purchased Carna Biosciences
Method: as §1

MAPKAPK2 = biological target: T12, MAPKAPK2 (Homo sapiens, UniProt P49137)
T12 construct: purchased Carna Biosciences
Method: as §1

MST1 = biological target: T13, MST1 (Homo sapiens, UniProt Q13043)
T13 construct: purchased Carna Biosciences
Method: as §1

PAK4 = biological target: T14, PAK4 (Homo sapiens, UniProt O96013)
T14 construct: purchased Carna Biosciences
Method: as §1

DYRK1B = biological target: T15, DYRK1B (Homo sapiens, UniProt Q9Y463)
T15 construct: purchased Carna Biosciences
Method: as §1

AKT1 = biological target: T16, AKT1 (Homo sapiens, UniProt P31749)
T16 construct: purchased Carna Biosciences
Method: as §1

T16 sequence (P31749 whole entry): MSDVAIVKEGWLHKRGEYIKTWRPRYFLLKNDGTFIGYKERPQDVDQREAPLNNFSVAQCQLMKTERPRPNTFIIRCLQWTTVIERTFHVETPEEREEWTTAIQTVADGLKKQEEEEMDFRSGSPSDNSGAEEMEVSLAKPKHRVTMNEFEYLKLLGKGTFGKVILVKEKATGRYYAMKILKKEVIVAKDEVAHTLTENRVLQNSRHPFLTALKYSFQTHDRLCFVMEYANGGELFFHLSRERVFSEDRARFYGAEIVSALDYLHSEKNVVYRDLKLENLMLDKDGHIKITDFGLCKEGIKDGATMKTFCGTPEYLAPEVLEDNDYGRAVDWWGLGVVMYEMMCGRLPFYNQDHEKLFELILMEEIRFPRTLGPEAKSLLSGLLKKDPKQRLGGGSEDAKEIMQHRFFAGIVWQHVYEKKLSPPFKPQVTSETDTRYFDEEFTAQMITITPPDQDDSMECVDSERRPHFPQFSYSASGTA
T7 sequence (Q02750 whole entry): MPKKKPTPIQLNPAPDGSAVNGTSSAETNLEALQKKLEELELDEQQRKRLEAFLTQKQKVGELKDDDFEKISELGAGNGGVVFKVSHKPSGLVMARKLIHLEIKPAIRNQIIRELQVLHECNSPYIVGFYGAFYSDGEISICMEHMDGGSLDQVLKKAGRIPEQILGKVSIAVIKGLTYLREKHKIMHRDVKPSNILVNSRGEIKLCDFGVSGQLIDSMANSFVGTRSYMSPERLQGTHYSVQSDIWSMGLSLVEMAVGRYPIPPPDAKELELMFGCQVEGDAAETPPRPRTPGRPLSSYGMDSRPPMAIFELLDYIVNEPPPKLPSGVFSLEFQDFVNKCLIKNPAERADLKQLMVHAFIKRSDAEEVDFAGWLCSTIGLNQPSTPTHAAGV
RAF1, sequence (P04049 whole entry Y340D/Y341D, form open): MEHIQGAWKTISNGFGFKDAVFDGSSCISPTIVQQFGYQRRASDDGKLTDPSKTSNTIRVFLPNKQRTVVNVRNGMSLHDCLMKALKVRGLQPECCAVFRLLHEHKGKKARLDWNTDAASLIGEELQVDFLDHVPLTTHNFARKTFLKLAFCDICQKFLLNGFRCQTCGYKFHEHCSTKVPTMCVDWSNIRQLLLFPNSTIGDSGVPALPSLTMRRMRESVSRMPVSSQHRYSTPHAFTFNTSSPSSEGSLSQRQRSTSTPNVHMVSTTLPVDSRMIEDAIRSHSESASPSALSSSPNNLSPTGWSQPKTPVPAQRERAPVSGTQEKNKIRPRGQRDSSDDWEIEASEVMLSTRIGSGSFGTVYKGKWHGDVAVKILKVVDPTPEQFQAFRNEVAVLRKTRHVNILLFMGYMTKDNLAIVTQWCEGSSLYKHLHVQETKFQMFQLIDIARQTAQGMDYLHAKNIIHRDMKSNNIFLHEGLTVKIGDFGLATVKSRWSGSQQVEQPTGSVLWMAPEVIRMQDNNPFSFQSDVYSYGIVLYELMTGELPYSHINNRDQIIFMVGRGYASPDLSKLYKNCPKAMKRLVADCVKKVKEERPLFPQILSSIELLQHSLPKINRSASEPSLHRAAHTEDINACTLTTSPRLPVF
T4 sequence (P23443 whole entry): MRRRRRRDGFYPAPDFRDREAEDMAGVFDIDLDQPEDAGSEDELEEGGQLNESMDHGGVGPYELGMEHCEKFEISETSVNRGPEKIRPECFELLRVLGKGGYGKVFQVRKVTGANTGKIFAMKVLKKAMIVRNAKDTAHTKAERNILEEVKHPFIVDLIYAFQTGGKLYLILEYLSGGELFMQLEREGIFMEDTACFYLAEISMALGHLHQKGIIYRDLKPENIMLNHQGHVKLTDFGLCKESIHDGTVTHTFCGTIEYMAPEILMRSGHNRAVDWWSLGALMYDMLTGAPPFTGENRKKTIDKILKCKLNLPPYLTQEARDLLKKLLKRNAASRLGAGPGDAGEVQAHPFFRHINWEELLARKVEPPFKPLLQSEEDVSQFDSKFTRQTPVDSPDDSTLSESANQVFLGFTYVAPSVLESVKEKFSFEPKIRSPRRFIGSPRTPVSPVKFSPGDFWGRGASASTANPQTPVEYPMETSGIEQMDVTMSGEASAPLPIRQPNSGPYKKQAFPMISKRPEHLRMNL
T10 sequence (P49841 whole entry): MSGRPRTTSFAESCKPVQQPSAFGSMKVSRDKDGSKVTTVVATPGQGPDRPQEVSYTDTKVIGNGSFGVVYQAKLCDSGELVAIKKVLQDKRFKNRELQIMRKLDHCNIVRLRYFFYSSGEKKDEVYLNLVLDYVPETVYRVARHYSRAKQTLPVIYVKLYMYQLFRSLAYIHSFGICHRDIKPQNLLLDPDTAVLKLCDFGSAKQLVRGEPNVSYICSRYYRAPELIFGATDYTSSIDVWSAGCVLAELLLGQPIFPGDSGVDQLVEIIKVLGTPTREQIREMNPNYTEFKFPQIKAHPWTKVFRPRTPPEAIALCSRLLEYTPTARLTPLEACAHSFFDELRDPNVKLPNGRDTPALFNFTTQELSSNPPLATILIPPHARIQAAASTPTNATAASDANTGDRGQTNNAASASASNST
T15 sequence (Q9Y463 whole entry): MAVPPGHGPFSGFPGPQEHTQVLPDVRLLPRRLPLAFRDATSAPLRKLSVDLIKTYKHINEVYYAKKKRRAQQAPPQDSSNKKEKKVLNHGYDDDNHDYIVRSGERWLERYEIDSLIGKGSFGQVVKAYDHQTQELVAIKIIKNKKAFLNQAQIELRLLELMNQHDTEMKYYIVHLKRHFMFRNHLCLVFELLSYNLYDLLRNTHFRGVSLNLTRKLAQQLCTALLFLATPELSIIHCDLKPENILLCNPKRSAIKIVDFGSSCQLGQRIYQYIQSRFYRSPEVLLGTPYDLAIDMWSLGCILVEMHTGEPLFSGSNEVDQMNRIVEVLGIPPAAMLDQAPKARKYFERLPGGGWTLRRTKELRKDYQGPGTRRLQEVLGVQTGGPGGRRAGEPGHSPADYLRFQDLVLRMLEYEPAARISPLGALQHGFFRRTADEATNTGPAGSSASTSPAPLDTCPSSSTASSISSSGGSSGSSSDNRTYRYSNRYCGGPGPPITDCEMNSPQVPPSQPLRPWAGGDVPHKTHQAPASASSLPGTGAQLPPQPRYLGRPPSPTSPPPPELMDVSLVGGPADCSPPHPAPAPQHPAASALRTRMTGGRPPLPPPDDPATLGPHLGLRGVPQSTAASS
T12 sequence (P49137 whole entry): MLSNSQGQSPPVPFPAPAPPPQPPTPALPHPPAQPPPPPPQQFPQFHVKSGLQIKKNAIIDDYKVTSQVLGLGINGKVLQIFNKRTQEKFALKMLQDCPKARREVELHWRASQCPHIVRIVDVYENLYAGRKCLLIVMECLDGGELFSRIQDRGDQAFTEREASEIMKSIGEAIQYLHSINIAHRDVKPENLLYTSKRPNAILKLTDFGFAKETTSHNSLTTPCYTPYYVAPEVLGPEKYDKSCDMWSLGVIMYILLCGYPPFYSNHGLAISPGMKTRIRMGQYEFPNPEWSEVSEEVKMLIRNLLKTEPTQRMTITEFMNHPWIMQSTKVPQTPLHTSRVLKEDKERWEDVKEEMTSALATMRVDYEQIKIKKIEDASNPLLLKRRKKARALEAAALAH
T1 sequence (P11309 whole entry): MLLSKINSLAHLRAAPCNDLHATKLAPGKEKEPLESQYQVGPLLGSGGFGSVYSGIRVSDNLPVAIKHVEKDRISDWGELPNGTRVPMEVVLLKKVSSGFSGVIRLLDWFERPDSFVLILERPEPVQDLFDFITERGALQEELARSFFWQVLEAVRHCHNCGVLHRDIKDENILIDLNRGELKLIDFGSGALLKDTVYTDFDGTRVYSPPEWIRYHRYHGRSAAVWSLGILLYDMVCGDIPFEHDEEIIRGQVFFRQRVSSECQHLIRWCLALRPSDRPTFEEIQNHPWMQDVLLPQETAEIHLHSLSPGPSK
T2 sequence (Q9NWZ3 whole entry): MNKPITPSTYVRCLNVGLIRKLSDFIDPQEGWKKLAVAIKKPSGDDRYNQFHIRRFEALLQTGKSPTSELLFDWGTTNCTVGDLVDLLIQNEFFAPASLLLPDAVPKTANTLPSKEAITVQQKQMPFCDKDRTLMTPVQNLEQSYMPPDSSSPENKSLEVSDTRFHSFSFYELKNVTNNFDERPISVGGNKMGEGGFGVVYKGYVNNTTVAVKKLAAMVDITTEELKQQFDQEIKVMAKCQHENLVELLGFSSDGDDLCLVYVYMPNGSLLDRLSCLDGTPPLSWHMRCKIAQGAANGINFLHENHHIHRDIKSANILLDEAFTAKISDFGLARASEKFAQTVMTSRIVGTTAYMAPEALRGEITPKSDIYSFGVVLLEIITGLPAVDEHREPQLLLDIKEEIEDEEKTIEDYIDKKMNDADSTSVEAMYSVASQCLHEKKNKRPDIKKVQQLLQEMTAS
T13 sequence (Q13043 whole entry): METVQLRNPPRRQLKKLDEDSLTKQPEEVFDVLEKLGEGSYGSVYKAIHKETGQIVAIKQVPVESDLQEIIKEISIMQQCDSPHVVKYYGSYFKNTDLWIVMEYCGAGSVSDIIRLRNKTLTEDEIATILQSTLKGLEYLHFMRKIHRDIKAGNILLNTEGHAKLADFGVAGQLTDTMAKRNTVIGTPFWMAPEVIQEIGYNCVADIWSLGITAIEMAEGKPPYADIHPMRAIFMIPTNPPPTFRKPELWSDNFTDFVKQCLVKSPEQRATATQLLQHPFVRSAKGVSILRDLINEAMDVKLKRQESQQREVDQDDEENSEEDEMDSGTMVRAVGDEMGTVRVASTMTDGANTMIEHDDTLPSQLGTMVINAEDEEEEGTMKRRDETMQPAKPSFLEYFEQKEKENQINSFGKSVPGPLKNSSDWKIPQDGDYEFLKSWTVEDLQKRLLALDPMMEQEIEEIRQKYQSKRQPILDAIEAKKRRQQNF

IC50 (PIM1): > 300 nM
IC50 (IRAK4): > 300 nM
IC50 (RAF1): > 300 nM
IC50 (DAPK1): > 300 nM
IC50 (p70S6K): > 300 nM
IC50 (AMPKa1/b1/g1): > 300 nM
IC50 (CaMK4): > 300 nM
IC50 (MAP2K1): > 300 nM
IC50 (JNK2): > 300 nM
IC50 (CDK2): > 300 nM
IC50 (GSK3b): 120 nM
IC50 (AurA): 130 nM
IC50 (MAPKAPK2): > 300 nM
IC50 (MST1): > 300 nM
IC50 (PAK4): > 300 nM
IC50 (DYRK1B): > 300 nM
IC50 (AKT1): > 300 nM
SMILES: CC(=O)Nc1ccc(C(=O)Nc2sc(Nc3ccccc3)nc2C(N)=O)cc1 [Compound 1, 5-(4-acetamidobenzamido)-2-(phenylamino)thiazole-4-carboxamide]
